Values joined by “and” are separate entries in the source; they are usually repeats but may differ in a detail not shown here. Equal values may be shown once.
Key:
[1] = biological target: T1, unphosphorylated VEGF-R2Δ50 (FLVK) (Homo sapiens, UniProt P35968, DEL940-989/E990V); experiment: VEGF-R2 coupled spectrophotometric assay, unphosphorylated construct (FLVK); assay type: biochemical; details: for inhibition at 0.05 µM: percent inhibition at 50 nM
T1 construct: VEGF-R2Δ50 contains residues 806-939 and 990-1171; made in house; host or cells: baculovirus/insect cell system
How it was run: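 Human VEGF-R2Δ50 cytosolic kinase (residues 806-939/990-1171, E990V), baculovirus-expressed, unphosphorylated form. PK/LDH-coupled NADH oxidation at 340 nm with 20 mM poly(E4Y1), 3 mM ATP, 60 mM MgCl2, 2 mM MnCl2, 200 mM HEPES pH 7.5, 5-40 nM enzyme; Ki fitted by Morrison equation.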

KDR (VEGFR2) = biological target: T2, KDR (VEGFR2) (Homo sapiens, UniProt P35968); experiment: KDR (VEGFR2) phosphorylation in PAE-KDR cells assay; assay type: cell-based; details: PAE cells overexpressing human KDR, VEGF stimulated; read-out: PAE KDR autophos IC50
T2 construct: expressed in transfected cells; host or cells: porcine aorta endothelial (PAE) cells
Protocol: This assay determines the ability of a test compound to inhibit the autophosphorylation of KDR in porcine aorta endothelial (PAE)-KDR cells. PAE cells that overexpress human KDR were used in this assay. The cells were cultured in Ham's F12 media supplemented with 10% fetal bovine serum (FBS) and 400 ug/mL G418. Thirty thousands cells were seeded into each well of a 96-well plate in 75 μL of growth media and allowed to attach for 6 hours at 37° C. Cells were then exposed to the starvation media (Ham's F12 media supplemented with 0.1% FBS) for 16 hours. After the starvation period was over, 10 μL of test agent in 5% DMSO in starvation media were added to the test wells and 10 μL of the vehicle (5% DMSO in starvation media) were added into the control wells. The final DMSO concentration in each well was 0.5%. Plates were incubated at 37° C. for 1 hour and the cells were then stimulated with 500 ng/ml VEGF (commercially available from R & D System) in the presence of 2 mM Na3VO4 for 8 minutes. The cells were washed once with 1 mm Na3VO4 in HBSS and lysed by adding 50 μL per well of lysis buffer. One hundred μL of dilution buffer were then added to each well and the diluted cell lysate was transferred to a 96-well goat ant-rabbit coated plate (commercially available from Pierce) which was pre-coated with Rabbit anti Human Anti-flk-1 C-20 antibody (commercially available from Santa Cruz). The plates were incubated at room temperature for 2 hours and washed seven times with 1% Tween 20 in PBS. HRP-PY20 (commercially available from Santa Cruz) was diluted and added to the plate for a 30-minute incubation. Plates were then washed again and TMB peroxidase substrate (commercially available from Kirkegaard & Perry) was added for a 10-minute incubation. One hundred μL of 0.09 N H2SO4 was added to each well of the 96-well plates to stop the reaction. Phosphorylation status was assessed by spectrophotometer reading at 450 nm. IC50 values were calculated by curve fitting using a four-parameter analysis.

PDGFRβ = biological target: T3, PDGFRβ (Homo sapiens, UniProt P09619); experiment: PAE-PDGFRβ phosphorylation in PAE-PDGFRB cells assay; assay type: cell-based; details: PAE cells overexpressing human PDGFRβ, PDGF-BB stimulated; read-out: PAE PDGFR autophos IC50
T3 construct: expressed in transfected cells; host or cells: porcine aorta endothelial (PAE) cells
How it was run: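 PAE cells overexpressing human PDGFRβ, serum-starved 16 h (0.1% FBS), compound 1 h at 37° C (0.5% DMSO), then 1 μg/mL PDGF-BB with 2 mM Na3VO4 for 8 min. Receptor captured by anti-PDGFRβ, phosphotyrosine detected by HRP-PY20/TMB at 450 nm; IC50 by four-parameter fit.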

HUVEC = experiment: bFGF HUVEC proliferation; assay type: cell-based, human; details: Homo sapiens, HUVEC, bFGF stimulated HUVEC
[2] = tested on: human umbilical vein endothelial cells (HUVEC); experiment: HUVEC+VEGF proliferation assay; assay type: cell-based; details: Homo sapiens, HUVEC, 72 h, VEGF 6 ng/mL, MTT
How it was run: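 HUVEC (passage 3-4), serum-starved 24 h in F12K + 1% FBS, were pre-treated with compound for 1 h (0.1% DMSO final). They were then stimulated with VEGF at 6 ng/mL final. Proliferation was measured after 72 h by MTT dye reduction (4 h), with absorbance read at 595 nm.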

Mouse PK assay = assay type: in vivo, B6 female mice; details: po; for AUC / Cmax: female, B6, mouse, plasma, 50 mg/kg; for Cmax: p.o., read-out: Mouse Cmax, po ng-h/mL
How it was run: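 Plasma levels were measured by HPLC with UV detection after acetonitrile precipitation, using extracted standards, in blood taken up to 4 h (0.5, 1, 2, 4 h) post-dose. Dosing: 50 mg/kg orally or intraperitoneally to two groups of four female B6 mice, vehicle PEG 400:acidified H2O 30:70 suspension.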

[3] = Human liver microsome (HLM) assay; assay type: in vitro ADME; details: human liver microsomes
Protocol: Compound metabolism in human liver microsomes was measured by LC-MS analytical assay procedures as follows. First, human liver microsomes (HLM) were thawed and diluted to 5 mg/mL with cold 100 mM potassium phosphate (KPO4) buffer. Appropriate amounts of KPO4 buffer, NADPH-regenerating solution (containing B-NADP, glucose-6-phosphate, glucose-6-phosphate dehydrogenase, and MgCl2), and HLM were preincubated in 13×100 mm glass tubes at 37° C. for 10 min. (3 tubes per test compound—triplicate). Test compound (5 μM final) was added to each tube to initiate reaction and was mixed by gentle vortexing, followed by incubation at 37° C. […] Samples were centrifuged at 4000 rpm for 20 min. to precipitate proteins and salt (Beckman Allegra 6KR, S/N ALK98DO6, #634). Supernatant was transferred to new 12×75 mm glass tubes and evaporated by Speed-Vac centrifugal vacuum evaporator. Samples were reconstituted in 200 μL 0.1% formic acid/acetonitrile (90/10) and vortexed vigorously to dissolve. The samples were then transferred to separate polypropylene microcentrifuge tubes and centrifuged at 14000×g for 10 min. (Fisher Micro 14, S/N M0017580). […]
The combined compound samples were injected into the LC-MS system, composed of a Hewlett-Packard HP1100 diode array HPLC and a Micromass Quattro II triple quadruple mass spectrometer operating in positive electrospray SIR mode (programmed to scan specifically for the molecular ion of each test compound). Each test compound peak was integrated at each timepoint. […]

T2 sequence (P35968 20-1356): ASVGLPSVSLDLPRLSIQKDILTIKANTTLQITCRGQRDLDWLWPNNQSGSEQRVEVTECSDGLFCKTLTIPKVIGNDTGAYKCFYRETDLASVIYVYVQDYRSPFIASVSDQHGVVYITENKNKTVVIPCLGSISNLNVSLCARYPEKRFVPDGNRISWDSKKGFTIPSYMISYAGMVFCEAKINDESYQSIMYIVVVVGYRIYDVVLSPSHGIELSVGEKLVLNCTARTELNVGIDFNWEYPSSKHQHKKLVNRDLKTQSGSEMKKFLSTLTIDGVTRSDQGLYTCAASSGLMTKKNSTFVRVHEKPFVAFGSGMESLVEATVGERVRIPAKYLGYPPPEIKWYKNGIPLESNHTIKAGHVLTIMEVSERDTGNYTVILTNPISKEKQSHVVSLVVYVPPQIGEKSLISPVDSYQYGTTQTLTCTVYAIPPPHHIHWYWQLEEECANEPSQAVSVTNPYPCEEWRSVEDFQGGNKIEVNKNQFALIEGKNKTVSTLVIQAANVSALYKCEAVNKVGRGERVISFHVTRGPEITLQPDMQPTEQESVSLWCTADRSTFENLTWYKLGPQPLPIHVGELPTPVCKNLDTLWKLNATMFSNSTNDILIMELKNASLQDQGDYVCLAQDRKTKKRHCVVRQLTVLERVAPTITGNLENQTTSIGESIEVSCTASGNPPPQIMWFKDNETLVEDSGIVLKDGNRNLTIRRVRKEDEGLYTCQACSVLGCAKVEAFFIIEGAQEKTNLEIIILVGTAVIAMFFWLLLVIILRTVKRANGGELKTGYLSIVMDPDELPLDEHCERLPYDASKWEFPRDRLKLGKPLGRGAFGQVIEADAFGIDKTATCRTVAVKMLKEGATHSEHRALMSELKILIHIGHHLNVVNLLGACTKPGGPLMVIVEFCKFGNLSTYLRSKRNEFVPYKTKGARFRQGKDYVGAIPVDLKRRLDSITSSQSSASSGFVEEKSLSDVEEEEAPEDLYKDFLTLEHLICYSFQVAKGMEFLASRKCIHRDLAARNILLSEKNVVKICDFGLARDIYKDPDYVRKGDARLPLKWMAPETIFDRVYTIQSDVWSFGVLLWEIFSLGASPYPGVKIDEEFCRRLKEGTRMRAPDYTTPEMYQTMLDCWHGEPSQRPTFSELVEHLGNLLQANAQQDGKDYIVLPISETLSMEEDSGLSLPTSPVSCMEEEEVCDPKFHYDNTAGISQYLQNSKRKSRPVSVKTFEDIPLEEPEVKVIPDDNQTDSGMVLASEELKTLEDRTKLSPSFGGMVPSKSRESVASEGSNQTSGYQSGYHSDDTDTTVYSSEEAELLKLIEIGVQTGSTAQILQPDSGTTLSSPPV
T1 sequence (P35968 with tags, fused parts or gaps DEL940-989/E990V limits assumed): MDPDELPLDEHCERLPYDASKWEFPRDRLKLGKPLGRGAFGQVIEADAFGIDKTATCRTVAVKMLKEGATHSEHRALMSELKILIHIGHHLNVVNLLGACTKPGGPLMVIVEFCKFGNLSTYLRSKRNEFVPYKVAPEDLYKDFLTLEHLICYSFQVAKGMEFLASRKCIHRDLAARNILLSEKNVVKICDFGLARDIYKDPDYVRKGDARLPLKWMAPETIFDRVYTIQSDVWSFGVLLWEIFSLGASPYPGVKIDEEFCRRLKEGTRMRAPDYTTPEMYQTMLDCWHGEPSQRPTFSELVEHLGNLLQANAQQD
T3 sequence (P09619 33-1106): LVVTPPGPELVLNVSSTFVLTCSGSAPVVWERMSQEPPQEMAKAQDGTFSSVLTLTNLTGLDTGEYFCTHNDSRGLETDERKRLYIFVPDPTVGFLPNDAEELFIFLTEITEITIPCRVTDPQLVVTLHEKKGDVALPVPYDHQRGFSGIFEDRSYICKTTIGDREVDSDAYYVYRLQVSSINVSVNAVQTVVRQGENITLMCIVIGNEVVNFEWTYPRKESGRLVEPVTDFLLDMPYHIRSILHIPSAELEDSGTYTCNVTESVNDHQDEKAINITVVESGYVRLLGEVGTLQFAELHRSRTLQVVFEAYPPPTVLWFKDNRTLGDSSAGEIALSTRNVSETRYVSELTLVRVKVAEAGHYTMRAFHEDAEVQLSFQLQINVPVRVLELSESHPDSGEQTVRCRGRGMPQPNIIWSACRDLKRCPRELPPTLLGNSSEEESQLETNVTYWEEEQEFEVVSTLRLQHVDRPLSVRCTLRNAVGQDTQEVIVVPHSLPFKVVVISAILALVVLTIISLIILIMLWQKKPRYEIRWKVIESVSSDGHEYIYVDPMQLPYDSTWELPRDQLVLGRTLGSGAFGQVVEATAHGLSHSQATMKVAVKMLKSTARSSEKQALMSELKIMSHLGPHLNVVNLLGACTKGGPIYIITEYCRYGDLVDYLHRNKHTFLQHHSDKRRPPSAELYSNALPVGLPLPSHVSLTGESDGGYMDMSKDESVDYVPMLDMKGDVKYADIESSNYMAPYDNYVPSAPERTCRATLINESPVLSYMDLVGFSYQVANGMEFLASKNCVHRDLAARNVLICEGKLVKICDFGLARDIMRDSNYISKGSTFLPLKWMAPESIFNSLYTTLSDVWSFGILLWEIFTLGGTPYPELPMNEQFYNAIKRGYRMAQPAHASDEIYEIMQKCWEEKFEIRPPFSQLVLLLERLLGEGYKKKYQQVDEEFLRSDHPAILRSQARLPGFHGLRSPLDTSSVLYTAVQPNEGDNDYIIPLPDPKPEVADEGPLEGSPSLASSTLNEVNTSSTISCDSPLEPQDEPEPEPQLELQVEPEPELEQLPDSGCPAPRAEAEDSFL

| Structure (SMILES) | Ki [1] | inhibition at 0.05 µM [1] | IC50 (KDR (VEGFR2)) | IC50 (PDGFRβ) | AUC (Mouse PK assay) | Cmax (Mouse PK assay) | Mouse Cmin, po (Mouse PK assay) | % remain (HLM-NADPH, 0.5 h) [3] | % remain (HLM-UDPGA, 0.5 h) [3] | IC50 (HUVEC) | IC50 [2] |
| --- | --- | --- | --- | --- | --- | --- | --- | --- | --- | --- | --- |
| COC[C@@H]1CCCN1C(=O)c1cc2nccc(Oc3ccc4c(cc(C)n4C(=O)NC4CC4)c3F)c2s1 [Example 5b] | 0.504 nM | 98% | 0.5 nM | 13.1 nM | – | – | – | – | – | 13.6 nM | – |
| CO[C@@H]1CCN(C(=O)c2cc3nccc(Oc4ccc5c(c4)cc(C)n5C(=O)NC4CC4)c3s2)C1 [Example 4k, 5-[2-(3R-Methoxy-pyrrolidine-1-carbonyl)-thieno[3,2-b]pyridin-7-yloxy]-2-methyl-indole-1-carboxylic acid cyclopropylamide] | 0.1 nM | 96% | 0.569 nM | 10 nM | – | – | – | – | – | 5.8 nM | – |
| Cc1cc2cc(Nc3ccnc4cc(-c5nccn5C)sc34)ccc2n1C(=O)NC(C)C [Example 2f, 5-(2-[1-methyl-1H-imidazol-2-yl]thieno[3,2-b]pyridin-7-ylamino)-2-methylindole-1-carboxylic acid isopropylamide] | – | 2% | – | – | 10600 ng·h/mL | 7700 ng/mL | 163 ng/mL | 70.9% | 119.4% | – | – |
| Cc1cc2cc(Nc3ccnc4cc(C(=O)N5CCC[C@H]5CO)sc34)ccc2n1C(=O)NC(C)C [Example 2g, 5-(2-[(S)-2-(hydroxymethyl)pyrrolidine-1-carbonyl]thieno[3,2-b]pyridin-7-ylamino)-2-methylindole-1-carboxylic acid isopropylamide] | 29.6 nM | 82% | – | – | 542 ng·h/mL | 252 ng/mL | 6 ng/mL | 106% | 113.4% | – | > 33.3 nM |

The next lines start with results.

| Ki [1] | inhibition at 0.05 µM [1] | IC50 (KDR (VEGFR2)) | IC50 (PDGFRβ) | AUC (Mouse PK assay) | Cmax (Mouse PK assay) | Mouse Cmin, po (Mouse PK assay) | % remain (HLM-NADPH, 0.5 h) [3] | % remain (HLM-UDPGA, 0.5 h) [3] | Structure (SMILES) | IC50 (HUVEC) | IC50 [2] |
| --- | --- | --- | --- | --- | --- | --- | --- | --- | --- | --- | --- |
| 4.7 nM | 64% | 1.2 nM | – | – | – | – | – | – | CCC(=O)n1c(C)cc2cc(Oc3ccnc4cc(C(=O)N5CC[C@H](OC)C5)sc34)ccc21 [Example 10a, 2-{[(3S)-3-Methoxypyrrolidin-1-yl]carbonyl}-7-[(2-methyl-1-propionyl-1H-indol-5-yl)oxy]thieno[3,2-b]pyridine] | 21 nM | 0.79 nM |
| 0.162 nM | 97% | – | 18 nM and 20 nM | – | – | – | – | – | C#CCNC(=O)n1c(C)cc2cc(Oc3ccnc4cc(C(=O)N5CC[C@H](O)C5)sc34)ccc21 [Example 9j, 5-[2-(3S-Hydroxy-pyrrolidine-1-carbonyl)-thieno[3,2-b]pyridin-7-yloxy]-2-methyl-indole-1-carboxylic acid prop-2-ynylamide] | 81 nM | 0.29 nM |
| 0.643 nM | 99% | – | 15.4 nM | – | – | – | – | – | CNC(=O)n1c(C)cc2cc(Oc3ccnc4cc(C(=O)N5CC[C@@H](N(C)C)C5)sc34)ccc21 [Example 8g, 5-[(2-{[(3R)-3-(Dimethylamino)pyrrolidin-1-yl]carbonyl}thieno[3,2-b]pyridin-7-yl)oxy]-N,2-dimethyl-1H-indole-1-carboxamide] | 9 nM | 0.15 nM |
| 0.228 nM | 99% | 1.47 nM | 25 nM | – | – | – | – | – | CCCNC(=O)n1c(C)cc2cc(Oc3ccnc4cc(C(=O)N5CC[C@H](OC)C5)sc34)ccc21 [Example 9d, 5-[2-(3S-Methoxy-pyrrolidine-1-carbonyl)-thieno[3,2-b]pyridin-7-yloxy]-2-methyl-indole-1-carboxylic acid propylamide] | 143 nM | – |
| 0.88 nM | 88% | – | 18.8 nM | – | – | – | – | – | Cc1cc2cc(Oc3ccnc4cc(C(=O)N5CC[C@@H](N(C)C)C5)sc34)ccc2n1C(=O)NCCO [Example 8l, 5-[(2-{[(3R)-3-(Dimethylamino)pyrrolidin-1-yl]carbonyl}thieno[3,2-b]pyridin-7-yl)oxy]-N-(2-hydroxyethyl)-2-methyl-1H-indole-1-carboxamide] | 63 nM | 1.5 nM |

— patent publication US6833456B2, “Indolyl-urea derivatives of thienopyridines useful as antiangiogenic agents, and methods for their use” (Agouron Pharmaceuticals, Inc., priority 2002, dated 2004)
